# Test results: patent US5814612A, “Retinol derivatives and uses thereof” (priority 1992, dated 1998)
# Read-outs that look alike come from different tables or passages of the source.
# Key:
# 5/2 cells = test: B-cell growth assay ([3H]-thymidine uptake), lymphoblastoid 5/2 cells in serum-free HB101 medium; assay type: cell-based, human
# Method: Washed 5/2 cells (5,000/well) were incubated for 72 hours in HB101 medium with the indicated amounts of retinoids. DNA synthesis was measured by [^3 H] thymidine uptake. The measurements were done in triplicate. The SDs were <15%.
# In FIGS. 4B to 4D, 5/2 cells were washed twice and seeded at a concentration of 150,000 cells/ml in HB 101 medium. Triplicate samples of 100 μl of cell suspension were removed daily and pulsed for 6 hours with [^3 H] thymidine. Means are shown. The SDs were never >20%.
# P3 was purified as described in the Experimental Details section. 5/2 cells (5,000/well) were incubated for 72 hours in HB101 medium and refed with the indicated amount of retinoid daily. DNA synthesis was measured by [^3 H]-thymidine uptake. P3 is bioactive down to a concentration of 10-^8 M (FIG. 8). […] This is due either to chemical instability or to a more rapid metabolic degradation of P3 by the cells.
# The human EBV-transformed B-cell line 5/2 was established from the peripheral blood of a healthy donor. The cell line was grown in RPMI 1640 supplemented with 8% fetal calf serum, L-glutamine (2 mM), and antibiotics. The cell line was tested regularly for mycoplasma infections and was consistently negative.
# The assay system is a modification of the assay developed by Blazar et al. (12). […] Assays were done in 96 well microtiter plates in a final volume of 200 μl/well or in 25 cm^2 tissue culture flasks. The cells in the microtiter plates were cultured for 72 hours and cell growth was determined by labeling for the last 16 hours with 0.8 μCi/well of [^3 H]thymidine (sp. act. 6.7 Ci/mmol). Growth in the culture flasks was determined in three aliquots of 100 μl taken at 24 hours intervals and cultured in the presence of 0.8 μCi of [^3 H]thymidine for an additional 6 hour period. To determine the viable cell number, nine aliquots per time point were differentially counted in a Neubauer chamber in the presence of trypan blue.
# B lymphocytes = test: Activity in B lymphocytes; assay type: cell-based
# lymph node T cells = test: Proliferation of anti-CD3 activated lymph node T cells; assay type: cell-based, BALB/c mouse
# Description: Growth curves of lymph node T cells depleted of antigen-presenting cells (FIG. 17A) with and without 10^-6 M retinol at 2×10^5 and 5×10^4 cells/well. (FIG. 17B) Dose-responses elicited by different retinoids in cultures of lymph node T cells depleted of antigen-presenting cells. Also shown are the growth curves of CD4^+ (FIG. 17C) and CD8^+ T lymphocytes (FIG. 17D) in the presence of either retinol, 14HRR, human serum or in their absence.
# T lymphocytes, purified as described, 5×10^4 /well, were activated with immobilized anti-CD3 antibody in ITLB medium. The indicated amounts of retinoids or human serum were added at initiation of cultures. […] 14HRR was added every 12 hours. DNA synthesis was measured by a 4 hour pulse with tritiated thymidine. SDs were ≤17%.
# Mature T cells were obtained from pooled intestinal, axillary, inguinal and submandibular lymph nodes of 4 to 10-week-old BALB/c mice. To fractionate cells into CD4 and CD8 subsets and at the same time remove APC, a combination of adherence and complement lysis was used as follows:
# The cell suspension in a volume of 2 ml was applied to a nylon wool column (40) (0.6 g of washed nylon fibers in the barrel of a 10 ml syringe) and incubated at 37° C. for 40 min. […] The success of the enrichment procedures was monitored cytofluorimetrically using FITC-conjugated anti-CD8 and PE-conjugated anti-CD4. […]
# Cells were cultured in serum-free medium, referred to as ITLB, containing RPMI 1640 supplemented with 8×10^-7 M insulin (5 μg/ml), 7×10^-8 M transferrin (5 μg/ml), 2×10^-6 M linoleic acid, 2×10^-6 M delipidated BSA (0.12 mg/ml), 2 mM L-glutamine, 1 mM sodium pyruvate and antibiotics. […] The optimal concentration for stimulation of T cells was determined for each batch of anti-CD3 mAb and Con A. The optimal range of Con A was particularly narrow in serum-free medium (0.5-0.2 μg/ml) and varied with the cell density used. […] Cellular proliferation was determined by [^3 H] thymidine uptake (0.5 uCi/well; New England Nuclear, Boston, Mass.) after the incubation times indicated for each experiment with a 4 hour labeling pulse. […]
# [1] = system: lymphoblastoid cells (LCL); details: cited from earlier work
# [2] = cited from earlier work
# Hela = test: Retinol metabolism, Hela; assay type: in vitro ADME, human
# Method: (§1) Legend: 2.5×10^6 cells were grown overnight in 5 ml RPMI/10% FBS. The FBS was preincubated at room temperature with 14.4 uCi [^3 H] retinol (NEN) for 4h. The cell pellet was washed twice with PBS. The retinoid were extracted according to MClean et al. 90 and separated on an analytical c18 reverse phase column according to FIG. 7. The DPM were determined using an on-line scintillation counter.
# SLA = test: Retinol metabolism, SLA; assay type: in vitro ADME, mouse
# Method: as §1
# N-tera2 = test: Retinol metabolism, N-tera2; assay type: in vitro ADME, human
# Method: as §1
SMILES,growth of 5/2 cells (5/2 cells),"minimal effective concentration (5/2 cells; Homo sapiens, B-cell, 72 hours, refed daily, read-out: lowest bioactive concentration (bioactive down to)) [µM]",activity relative to all-trans retinol on a concentration basis (B lymphocytes; B cells),potency relative to retinol in preventing necrotic cell death (B lymphocytes; concentration basis),stimulation of lymph node T cells (lymph node T cells),support of growth of LCL in serum-free medium [1],half-life ([2]; serum-free cell culture (ref. 32)) [h],"half-life ([2]; serum-free tissue culture medium, estimated (ref. 32)) [h]",Ester (% of taken up retinol) (Hela) [%],P3 (% of taken up retinol) (Hela) [%],Total cts. (Hela),Ester (% of taken up retinol) (SLA) [%],P3 (% of taken up retinol) (SLA) [%],Total cts. (SLA),Ester (% of taken up retinol) (N-tera2) [%],P3 (% of taken up retinol) (N-tera2) [%],Total cts. (N-tera2)
"CC(C=CC=C(C)C(O)CO)=CC=C1C(C)=CCCC1(C)C (centres unmarked) [14HRR, 14-hydroxy-4,14-retro-retinol]",active and capable of replacing retinol,0.01,10-30 fold,20-40 times,effective over the same dose range as observed for thymocytes,,,,,,,,,,,,
CC1=C(/C=C/C(C)=C/C=C/C(C)=C/C(=O)O)C(C)(C)CCC1 [all-trans retinoic acid],,,,,nearly inert,"but not retinoic acid, support the growth of LCL in serum-free medium",,,,,,,,,,,
"CC1=C(/C=C/C(C)=C/C=C/C(C)=C/CO)C(C)(C)CCC1 [retinol, all-trans retinol]",enable 5/2 cells to grow,,,,,support the growth of LCL in serum-free medium,< 24,~24,20,3,1.0 × 10^5 cts.,9,3,6.1 × 10^5 cts.,97,0.4,13.5 × 10^5 cts.
